This is an account of results in patent publication US20240351996A1, “CDK19-SELECTIVE INHIBITORS, AND METHODS OF USE THEREOF” (CZ BIOHUB SF, LLC, priority 2022, published 2024).

Some results are limits rather than exact numbers.

The target of one assay is CDK19/CycC (Homo sapiens, UniProt Q9BWU1). Briefly: LanthaScreen europium kinase binding assay (FRET displacement), CDK19. The following applies: for CDK19 Selectivity: CDK19/CDK8 selectivity based on IC50 values; for IC50: his-tagged CDK19/CycC 5 nM, tracer 10 nM, 3 h incubation. The protocol: (§1) FRET Displacement Assay to Measure IC50: The CDK19/CDK8 IC50 values were measured to evaluate activity and to determine CDK19/CDK8 selectivity. The IC50 values of the disclosed compounds was measured using a LanthaScreen™ europium kinase binding assay (ThermoFisher), as described herein.
Sequence of CDK19/CycC (Q9BWU1 whole entry): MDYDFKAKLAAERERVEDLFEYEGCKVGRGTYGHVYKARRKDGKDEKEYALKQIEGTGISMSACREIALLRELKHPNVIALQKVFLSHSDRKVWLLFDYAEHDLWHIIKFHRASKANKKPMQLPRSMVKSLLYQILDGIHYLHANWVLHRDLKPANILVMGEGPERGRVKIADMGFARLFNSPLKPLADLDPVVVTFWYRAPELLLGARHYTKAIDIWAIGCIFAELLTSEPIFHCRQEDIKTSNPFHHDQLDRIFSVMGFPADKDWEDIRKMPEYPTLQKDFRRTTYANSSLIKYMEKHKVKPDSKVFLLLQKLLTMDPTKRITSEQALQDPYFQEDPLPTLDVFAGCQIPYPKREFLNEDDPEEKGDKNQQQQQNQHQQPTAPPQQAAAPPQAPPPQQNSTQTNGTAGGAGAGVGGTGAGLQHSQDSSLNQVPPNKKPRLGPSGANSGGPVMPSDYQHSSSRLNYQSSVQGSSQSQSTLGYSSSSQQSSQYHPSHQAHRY
Sequence of CDK19/CycC (P24863 whole entry partner): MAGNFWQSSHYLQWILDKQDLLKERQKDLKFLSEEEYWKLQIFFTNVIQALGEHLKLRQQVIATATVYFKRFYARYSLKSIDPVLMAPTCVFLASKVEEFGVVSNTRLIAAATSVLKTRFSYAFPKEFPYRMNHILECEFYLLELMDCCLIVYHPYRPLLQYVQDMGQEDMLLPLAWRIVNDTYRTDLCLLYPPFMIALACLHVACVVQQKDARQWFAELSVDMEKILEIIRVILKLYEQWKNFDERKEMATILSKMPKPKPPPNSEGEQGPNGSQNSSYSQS
To a kinase buffer cocktail solution (i.e., 5× Kinase Buffer A) was added: purified recombinant his-tagged CDK19/CycC protein (5 nM), ATP-competitive kinase inhibitor scaffold kinase tracer Alexa Fluor® 665 (10 nM), biotin anti-his tag antibody (2 nM), LanthaScreen® europium-streptavidin (2 nM). An aliquot of the cocktail solution (10 μL) was added to each well of a LUMITRAC™ 200:384 flat bottom, non-treated microtiter white plate. The plate was then covered to protect light sensitive reagents and incubated for 30 min at room temperature to equilibrate before addition of any inhibitors.
(§2) A serial dilution of the compounds was titrated into each well using an automated liquid handling Staccato integrated system at the following concentration(s) (Log10 Molar [C]): −4.5, −5.0, −5.5, −6.0, −6.5, −7.0, −7.5, −8.0 so that a complete dose-response could be calculated. A Tecan microplate reader infinite m200 instrument was then used to measure the FRET signal of each individual well using an excitation of 317/20 nm, emission europium of 620/12 nm, and emission kinase tracer of 665/12 nm after a 3 h incubation period at room temperature until steady-state kinetics were achieved.
(§3) Results were performed in duplicate and were repeated a total of 3 independent times before data was normalized to the DMSO control group and IC50 values reported.

The next assay deals with CDK8 (Homo sapiens, UniProt P49336). The assay is described as follows: LanthaScreen europium kinase binding assay (FRET displacement), CDK8. The protocol:
as §1
[…] An aliquot of the cocktail solution (10 μL) was added to each well of a LUMITRAC™ 200:384 flat bottom, non-treated microtiter white plate. The plate was then covered to protect light sensitive reagents and incubated for 30 min at room temperature to equilibrate before addition of any inhibitors.
as §2, §3
For orientation: TR-FRET usually uses a lanthanide donor and a delayed reading to cut background.

Sequence of CDK8 (P49336 whole entry): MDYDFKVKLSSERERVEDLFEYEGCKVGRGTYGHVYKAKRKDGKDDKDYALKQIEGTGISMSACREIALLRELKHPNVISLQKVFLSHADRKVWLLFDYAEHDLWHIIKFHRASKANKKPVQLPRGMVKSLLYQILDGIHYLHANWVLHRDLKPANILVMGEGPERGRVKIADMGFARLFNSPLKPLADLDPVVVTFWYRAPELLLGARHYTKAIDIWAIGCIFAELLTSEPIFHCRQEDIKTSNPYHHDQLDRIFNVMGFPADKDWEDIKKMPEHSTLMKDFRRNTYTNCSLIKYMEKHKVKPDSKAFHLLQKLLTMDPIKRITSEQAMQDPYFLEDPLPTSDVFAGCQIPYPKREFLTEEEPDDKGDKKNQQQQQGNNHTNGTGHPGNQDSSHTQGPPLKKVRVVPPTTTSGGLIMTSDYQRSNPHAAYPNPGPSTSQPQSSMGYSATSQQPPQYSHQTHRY
Sequence of CDK8 (P24863 whole entry partner): as the sequence (P24863 whole entry partner) above

Take `c1cc(Nc2cnc(Nc3ccc(CC4CC4)cc3)nc2)ccn1` [Compound A45]: at CDK19/CycC, the “CDK19 Selectivity” value is listed as 2. The figures for the concentration for half-maximal inhibition (IC50) at CDK19/CycC and on CDK8 were 138 nM and 214 nM, respectively.
Take `CC(C)Cc1cccc(Nc2ncc(Nc3ccnc(C(F)(F)F)c3)cn2)c1` [Compound A35]: the IC50 on CDK19/CycC and at CDK8 was 10000 nM each time.
On to `CC(C)Cc1ccc(Nc2ncc(Nc3ccnc(C(C)C)c3)cn2)cc1` [Compound A46], for which, on CDK19/CycC, the “CDK19 Selectivity” value came to 4.6 and the IC50 turned out to be 88 nM. Also, the concentration for half-maximal inhibition (IC50) on CDK8 is 407 nM.
Turning to `c1cc(Nc2cnc(Nc3ccc(C4CCCC4)cc3)nc2)c(OC2CCCC2)cn1` [Compound A3], the “CDK19 Selectivity” value at CDK19/CycC is given as 1.1. Also, the IC50 at CDK19/CycC came out at 7.6 nM; on CDK8, 8.2 nM.
The matching figures for `CC(C)Cc1ccc(Nc2ccc(C(=O)c3ccncc3Cl)cn2)cc1` [Compound A123]: 5, 41 nM and 201 nM.
`CC(C)Cc1ccc(Nc2ncc(Nc3ccncc3C(=O)NC3CCCC3)cn2)cc1` [Compound A146]: the “CDK19 Selectivity” value at CDK19/CycC came out at 1. Also, the IC50 turned out to be 219 nM at CDK19/CycC and 178 nM at CDK8.
The matching figures for `Cc1cc(C#N)ccc1-c1cnc(Nc2ccc(CC(C)C)cc2)nc1` [Compound A90]: 4.6, 1060 nM and 4860 nM.
For `FC(F)(F)c1cnccc1Nc1cnc(Nc2ccc(C3CCOCC3)cc2)nc1` [Compound A181], in that order: at most 1, at most 2.5 nM and at most 2.5 nM.
For `Cc1cnccc1Nc1cnc(Nc2ccc(CC(C)C)cc2)nc1C` [Compound A22], in that order: 1.3, 24 nM and 31 nM.
In the case of `Cc1nc(Nc2ccc(CC(C)C)cc2)ncc1Nc1ccncc1C(F)(F)F` [Compound A166], at CDK19/CycC, the “CDK19 Selectivity” value turned out to be 1 and the IC50 was determined as 5 nM. The compound further came in with an IC50 at CDK8 of 5 nM.
In the case of `CC(C)Cc1ccc(Nc2ncc(S(=O)(=O)c3ccncc3)cn2)cc1` [Compound A152], the results for the IC50 at CDK19/CycC and on CDK8 were 1060 nM and 4630 nM, respectively.
For the compound `CC(C)Cc1ccc(Nc2ccc(Oc3ccncc3)cn2)cc1` [Compound A83], on CDK19/CycC, the “CDK19 Selectivity” value came to 1 and the IC50 stood at 5900 nM. Further, the half-maximal inhibitory concentration (IC50) at CDK8 is 8300 nM.
The matching figures for `CCc1cnccc1Nc1cnc(Nc2ccc(C3CCCCC3)cc2)nc1` [Compound A68]: 1, 12 nM and 12 nM.
With `CC(C)Cc1ccc(Nc2ncc(C(=O)c3ccncc3)cn2)c(F)c1` [Compound A129], on CDK19/CycC, the “CDK19 Selectivity” value is listed as 2.4 and the IC50 was at most 2.5 nM. This compound displayed an IC50 at CDK8 of 3.5 nM.
The matching figures for `Cc1cc(-c2cnc(Nc3ccc(CC(C)C)cc3)nc2)ccc1C#N` [Compound A91]: 12, 798 nM and 10000 nM.
The matching figures for `c1cc(Nc2cnc(Nc3ccc(C4COC4)cc3)nc2)c(OC2CCCC2)cn1` [Compound A2]: 1.2, 11 nM and 14 nM.
The matching figures for `Cc1cc(Nc2cnc(Nc3ccc(CC4CC4)cc3)nc2)ccn1` [Compound A42]: 2, 449 nM and 833 nM.
As to `CC(C)Cc1ccc(Nc2ncc(Nc3ccc4c(c3)CNC4=O)cn2)cc1` [Compound A153], the IC50 at CDK19/CycC is 266 nM; on CDK8, 605 nM.
For the compound `Cc1cnccc1Nc1cnc(Nc2ccc(OC(C)C)cc2F)nc1` [Compound A162], at CDK19/CycC, the “CDK19 Selectivity” value worked out at 4 and the IC50 was determined as 89 nM. At CDK8, this compound had an IC50 of 362 nM.
For `CC(C)Cc1ccc(Nc2ncc(C(F)(F)c3ccncc3)cn2)cc1` [Compound A139], in that order: 3.2, 5.5 nM and 18 nM.
Regarding `c1ccc2c(Nc3cnc(Nc4ccc(CC5CC5)cc4)nc3)ccnc2c1` [Compound A43], on CDK19/CycC, the “CDK19 Selectivity” value came out at 6 and the IC50 is 6 nM. Further, the IC50 at CDK8 came to 37 nM.
For `Cc1cnccc1Nc1cnc(Nc2cccc(CC(C)C)c2)nc1` [Compound A32], in that order: 3.5, 378 nM and 1320 nM.
The matching figures for `CC(C)Cc1ccc(Nc2ccc(C(=O)c3ccncc3)cn2)cc1` [Compound A78]: 2.6, 5 nM and 13 nM.
Turning to `CC(C)Cc1ccc(Nc2ccc(C(=O)c3ccncc3F)cn2)cc1` [Compound A122], at CDK19/CycC, the “CDK19 Selectivity” value is listed as 5 and the IC50 stood at 31 nM. The 50% inhibitory concentration (IC50) on CDK8 turned out to be 160 nM.
The matching figures for `Cc1cc(Nc2cnc(Nc3ccc(CC(C)C)cc3)nc2)c(F)cn1` [Compound A174]: 4, 7 nM and 33 nM.
Consider `CC(C)Cc1ccc(Nc2ccc(-c3ccc(C#N)cc3)cn2)cc1` [Compound A79], for which the IC50 on CDK19/CycC and on CDK8 was 10000 nM in each case.
Turning to `CC(C)Cc1ccc(Nc2ncc(Nc3ccnc(N)c3)cn2)cc1` [Compound A159], at CDK19/CycC, the “CDK19 Selectivity” value is listed as 3 and the IC50 came to 18 nM. Besides, the IC50 at CDK8 worked out at 54 nM.
The matching figures for `CC(C)Cc1ccc(Nc2ccc(C(=O)c3cccnc3)cn2)cc1` [Compound A200]: 2, 1340 nM and 2380 nM.
For `CC(C)Cc1ccc(Nc2ncc(Nc3cncnc3)cn2)cc1` [Compound A63], in that order: 4.8, 1600 nM and 7790 nM.
Consider `Cc1cc(Nc2cnc(Nc3cccc(C4CC4)c3)nc2)ccn1` [Compound A24], for which the IC50 at CDK19/CycC was 9870 nM; on CDK8 it was 10000 nM.
`COc1cnccc1Nc1cnc(Nc2ccc(CC(C)C)cc2)nc1C` [Compound A25]: at CDK19/CycC, the “CDK19 Selectivity” value amounted to 0.9 and the IC50 was found to be 16 nM. On CDK8, this compound had an IC50 of 15 nM.
Take `Cc1cc(C)cc(-c2cnc(Nc3ccc(CC(C)C)cc3)nc2)c1` [Compound A88]: at CDK19/CycC, the “CDK19 Selectivity” value came out at 2.7 and the half-inhibitory concentration (IC50) came out at 557 nM. In addition, the IC50 on CDK8 came to 1490 nM.
Turning to `COc1cc(CC(C)C)ccc1Nc1ncc(C(=O)c2ccncc2OC2CCCC2)cn1` [Compound A171], on CDK19/CycC, the “CDK19 Selectivity” value was 2 and the IC50 was 16 nM. At CDK8, the IC50 was found to be 25 nM.
For `CC(C)Cc1cccc(Nc2ncc(Nc3ccncc3)cn2)c1` [Compound A28], in that order: 1.7, 1640 nM and 2730 nM.
For `CC(C)Cc1ccc(Nc2ncc(C(=O)Nc3ccncc3)cn2)cc1` [Compound A49, 2-((4-isobutylphenyl)amino)-N-(pyridin-4-yl)pyrimidine-5-carboxamide], in that order: 3.9, 2490 nM and 9360 nM.
The matching figures for `CC(C)Cc1ccc(Nc2ncc(Cc3ccncc3)cn2)cc1` [Compound A138]: 4.8, 5 nM and 24 nM.

As usually defined, the IC50 is the concentration that inhibits the measured activity by half. Low readings indicate greater potency, high ones weaker potency.
